Results: paper doi:10.1101/2024.12.17.628051v1 (biorxiv, 2024)
Like-named read-outs stand apart in the source and are kept apart here.

What was measured:
[1] = biological target: T1, LKB1/STRAD/MO25 trimer (Homo sapiens, UniProt Q7RTN6); assay: Caliper mobility-shift kinase assay, Fam-LKBtide; type: biochemical
T1 sequence (Q7RTN6 1-431): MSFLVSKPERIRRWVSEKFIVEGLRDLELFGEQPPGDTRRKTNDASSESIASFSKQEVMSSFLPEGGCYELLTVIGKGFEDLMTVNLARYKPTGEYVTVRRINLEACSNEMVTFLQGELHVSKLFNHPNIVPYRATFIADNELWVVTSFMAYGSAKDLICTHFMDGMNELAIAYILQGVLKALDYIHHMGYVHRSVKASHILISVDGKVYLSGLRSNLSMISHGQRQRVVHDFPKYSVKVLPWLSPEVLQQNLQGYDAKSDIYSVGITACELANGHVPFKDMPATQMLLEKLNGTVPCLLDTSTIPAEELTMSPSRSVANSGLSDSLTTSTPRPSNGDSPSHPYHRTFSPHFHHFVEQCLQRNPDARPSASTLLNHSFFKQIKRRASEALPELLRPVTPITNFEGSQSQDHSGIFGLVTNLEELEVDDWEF
T1 sequence (Q15831 1-430 partner): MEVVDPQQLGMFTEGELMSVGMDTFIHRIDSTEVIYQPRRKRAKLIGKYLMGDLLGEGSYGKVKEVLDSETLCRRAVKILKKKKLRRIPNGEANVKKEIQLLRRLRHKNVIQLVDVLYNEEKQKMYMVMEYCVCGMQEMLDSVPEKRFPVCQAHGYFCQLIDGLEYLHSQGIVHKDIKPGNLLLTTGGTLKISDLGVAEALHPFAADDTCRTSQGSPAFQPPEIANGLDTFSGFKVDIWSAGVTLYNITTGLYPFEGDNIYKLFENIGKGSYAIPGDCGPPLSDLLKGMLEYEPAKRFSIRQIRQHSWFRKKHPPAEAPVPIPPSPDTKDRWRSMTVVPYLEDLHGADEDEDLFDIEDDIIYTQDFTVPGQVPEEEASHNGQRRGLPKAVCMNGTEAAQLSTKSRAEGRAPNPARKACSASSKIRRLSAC
T1 sequence (Q9Y376 1-341 partner): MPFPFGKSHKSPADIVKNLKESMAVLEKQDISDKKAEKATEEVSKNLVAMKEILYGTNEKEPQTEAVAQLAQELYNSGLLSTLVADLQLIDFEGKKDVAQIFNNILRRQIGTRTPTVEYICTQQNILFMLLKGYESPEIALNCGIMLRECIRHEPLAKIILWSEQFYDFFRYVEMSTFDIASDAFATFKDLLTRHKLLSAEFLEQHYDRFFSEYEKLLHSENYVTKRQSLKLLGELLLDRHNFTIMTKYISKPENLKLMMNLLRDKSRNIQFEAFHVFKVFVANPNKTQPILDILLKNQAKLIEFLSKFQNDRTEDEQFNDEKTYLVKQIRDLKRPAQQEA

[2] = biological target: T2, STRAD/MO25 dimer (His-STRAD C160 and MO25) (Homo sapiens, UniProt Q7RTN6); assay: TNP-ATP fluorescence displacement; type: binding; details: 50 μM compound, 5 μM STRAD-MO25, 5 μM TNP-ATP, pH 7.5, room temperature
T2 sequence (Q7RTN6 59-431): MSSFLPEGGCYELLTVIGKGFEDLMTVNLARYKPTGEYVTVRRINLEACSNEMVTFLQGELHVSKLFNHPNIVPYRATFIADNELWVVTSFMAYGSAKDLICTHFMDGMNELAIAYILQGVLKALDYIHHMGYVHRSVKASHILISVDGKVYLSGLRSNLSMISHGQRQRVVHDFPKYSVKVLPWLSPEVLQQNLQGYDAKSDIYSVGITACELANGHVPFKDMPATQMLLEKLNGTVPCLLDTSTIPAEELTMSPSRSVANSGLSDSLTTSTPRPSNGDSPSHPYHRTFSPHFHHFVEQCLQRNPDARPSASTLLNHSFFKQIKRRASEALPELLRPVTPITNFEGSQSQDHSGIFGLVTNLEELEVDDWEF
T2 sequence (Q9Y376 1-341 partner): T1 sequence (Q9Y376 1-341 partner)

[3] = biological target: T2, STRAD/MO25 dimer (His-STRAD C160 and MO25); assay: biochemical; details: read-out: residual occupancy (Average)
[4] = biological target: T2, STRAD/MO25 dimer (His-STRAD C160 and MO25); assay: TNP-ATP fluorescence displacement; type: binding
[5] = biological target: T2, STRAD/MO25 dimer (His-STRAD C160 and MO25); assay: biochemical; details: read-out: residual occupancy (Average); remark: listed apart in the source

| SMILES | Residual Occupancy (Average) at 50 μM [2] [fraction] | remaining activity at 50 µM [5] [%] | further results |
| --- | --- | --- | --- |
| CCOP(C)(=O)COc1cccc(-c2cn([C@H]3C[C@@H](CN4CCC4)C3)c3ncnc(N)c23)c1 (stereo partly shown) [SMALS-357] | – | – | EC50 [1]: 5.2 µM |
| CN1CCN(CCOc2cc(OC3CCOCC3)c3c(Nc4c(Cl)ccc5c4OCO5)ncnc3c2)CC1 [Saracatinib] | 0.36 ± 0.02 | – | – |
| N#CC(C#N)=Cc1ccc(O)c(O)c1 [AG-18] | – | – | remaining activity at 50 µM [3]: 54% |
| Nc1ncnc2c1c(-c1cccc(OCc3ccccc3)c1)cn2[C@H]1C[C@@H](CN2CCC2)C1 [NVP-AEW541] | – | 19 | IC50 [4]: 2.4 µM |
| CCOP(=O)(COc1cccc(-c2cn([C@H]3C[C@@H](CN4CCC4)C3)c3ncnc(N)c23)c1)OCC [SMALS-323] | – | – | EC50 [1]: 0.48 µM |
| COc1cc(Nc2ncc(F)c(Nc3ccc4c(n3)N(COP(=O)(O)O)C(=O)C(C)(C)O4)n2)cc(OC)c1OC [Fostamatinib (R788)] | – | 52 | – |
| N#C/C(=C(/N)Sc1ccc(N)cc1)c1ccccc1C(F)(F)F [SL-327] | – | 54 | – |

Further lines, with some results ahead:

| Residual Occupancy (Average) at 50 μM [2] [fraction] | remaining activity at 50 µM [5] [%] | SMILES | further results |
| --- | --- | --- | --- |
| 0.40 ± 0.03 | – | Cc1cc(Nc2ncc(Cl)c(Nc3ccccc3S(=O)(=O)C(C)C)n2)c(OC(C)C)cc1C1CCNCC1 [LDK378] | – |
| – | 58 | Cc1[nH]c2ccccc2c1C1=C(NCCc2ccc(F)cc2)C(=O)N(C)C1=O [IM-12] | – |
| 0.46 ± 0.02 | – | CCOc1cc(C(=O)N2CCC(N3CCN(C)CC3)CC2)ccc1Nc1ncc2c(n1)N(C1CCCC1)c1ccccc1C(=O)N2C [ERK5-IN-1] | – |
| 0.33 ± 0.02 | – | COc1cc(N2CCC(N)CC2)ccc1Nc1ncc(Cl)c(-c2c[nH]c3ccccc23)n1 [AZD3463] | – |
| – | 56 | Cc1c[nH]c2nc(Nc3ccc(N4CCN(C)CC4)c(F)c3)nc(-c3cccc(CC#N)c3)c12 [SGI-7079] | – |
